Values quoted from earlier work, collected in patent publication US20070014855A1, “STABLE DESLORATADINE COMPOSITIONS” (priority 2005, published 2007).

For `Clc1ccc2c(c1)CCc1cccnc1C2=C1CCNCC1` [Desloratadine, 8-chloro-6,11-dihydro-11-(4-piperidylidene)-5H-benzo[5,6]-cyclohepta[1,2-b]pyridine], which solubility in ethanol (ethanol) is on record?
The solubility in ethanol was “very soluble”.

What about the “solubility in propylene glycol” value (propylene glycol) of the same compound?
Its value is “very soluble”.

And the solubility in water (water)?
Its solubility in water is “slightly soluble”.
